Laboratory results from patent publication US20050112204A1, “Pharmaceutical formulations” (priority 2003, published 2005).
≈ marks a conversion by molar mass, not a printed value.

Key:
Format in all cases: physicochemical
[1] = visual solubility of voriconazole in water and aqueous poloxamer F127 solutions (Example 2); conditions: for visual solubility in water: ambient conditions; for solubility: aqueous poloxamer F127 solution, aqueous with cosolvent or surfactant or cyclodextrin, thermodynamic from solid, read-out: soluble up to
Procedure: Voriconazole aqueous solutions of 0.5 and 1 mg/ml were prepared in water (20 ml). Corresponding aqueous solutions of 2, 3 and 4 mg/ml were prepared in aqueous poloxamer solutions (20 ml), as follows: The samples were prepared in 50 ml glass vials, and sonicated in an ultrasonic bath for 30 minutes. The solutions were allowed to cool, then visually assessed immediately and after 18 hours. The solubilization factor on the y-axis is a code for the level of solubility visually observed.

[2] = aqueous solubility of voriconazole (previously measured data); conditions: water, aqueous buffer; pH 7; 22° C.
[3] = stability of voriconazole in water; conditions: an inactive enantiomer is formed from recombination of the retro-aldol products of hydrolysis

- visual solubility in water ([1]; 0.5 mg/ml in water): virtually complete solubility
- visual solubility in water ([1]; 1 mg/ml in water): clearly insoluble
- increase in solubility in comparison with water alone ([1]; 10% F127 solution): three to four fold
- increase in solubility in comparison with water alone ([1]; 15% F127 solution): five to six fold
- solubility ([1]; in 10% F127 solution): ≤ 2000 µg/mL
- solubility ([1]; in 15% F127 solution): ≤ 3000 µg/mL
- solubility [2]: 610 µg/mL (≈ 1.75 mM)
- stability in water [3]: not stable in water
Compound: C[C@@H](c1ncncc1F)[C@](O)(Cn1cncn1)c1ccc(F)cc1F [voriconazole, (2R,3S)-2-(2,4-Difluorophenyl)-3-(5-fluoro-4-pyrimidinyl)-1-(1H-1,2,4-triazol-1-yl)-butan-2-ol]
